{"source": "patent US12133523B2", "about": "“Anti-freezing composition comprising self-assembly compound” (Korea University Research and Business Foundation, priority 2019, dated 2024)", "key": {"[1]": {"system": "mouse embryonic stem cells (mESCs)", "assay": "mESC cell viability by CCK-8 assay and crystal violet dye", "type": "cell-based", "conditions": "for toxicity to mESC: 5 to 20 uM, CCK-8 and crystal violet dye; for cell viability with respect to mESC: CCK-8", "procedure": "In a 60 mm cell culture dish coated with 0.1% gelatin (Sigma), mouse ES cells were cultured in a medium DMEM (Hyclone), to which 2 mM L-glutamine (Mediatech Inc.), 1% penicillin/streptomycin (Mediatech Inc.), 15% heat-inactivated fetal bovine serum (Hyclone), 20 mM HEPES-pH 7.3 (Cellgro), 0.1 mM MEM non-essential amino acid (Cellgro), 0.1 mM 2-mercaptoethanol (Sigma) and 1000 U/mL LIF (Millipore) are added, in order to prevent differentiation.\nMouse ES cells were seeded by 8×10^4 cells per well in a 96-well plate containing the above various cryopreservation solutions. After 9 hours, CCK-8 reagent was added and fluorescence intensity was measured using an ELISA Reader (TECAN).\n[…] Cells were washed with 500 μL of PBS and 500 μL of 4% PFA was added thereto for 15 minutes. The fixed cells were washed twice with 500 μL of PBS and 0.5% crystal violet solution was added thereto for 30 minutes. The stained cells were washed with tap water."}, "[2]": {"assay": "Gold nanoparticle (MPA-AuNP) colorimetric freeze/thaw assay for TH and IRI activity", "conditions": "for aggregation of gold particles after freezing/thawing (absorption peak shift 525 nm to 650 nm): 50 μL of 0.5 mM sample in 350 μL of 300 μM MPA-AuNP, -65 °C 23 min", "procedure": "Thermal hysteresis (TH) as anti-freezing activity was measured in accordance with the method described in Park, J.-I., Lee, J. H., Gwak, Y., Kim, H. J., Jin, E., & Kim, Y.-P. (2013). Frozen assembly of gold nanoparticles for rapid analysis of antifreeze protein activity. Biosensors and Bioelectronics, 41, 752-757, and ice recrystallization inhibition (IRI) activity was measured based on Mitchell, D. E., Congdon, T., Rodger, A., & Gibson, M. I. (2015). Gold Nanoparticle Aggregation as a Probe of Antifreeze (Glyco) Protein-Inspired Ice Recrystallization Inhibition and Identification of New IRI Active Macromolecules. Scientific Reports, 5(1). More specifically, when dispersing AFP in a solution in which gold nanoparticles are dispersed, and freezing the solution then thawing again, if the AFP has good conjugating force with an ice crystal surface, the dispersibility of gold nanoparticles is good to maintain an original color of the solution, whereas if it has weak conjugating force, AFP is precipitated, and when ice crystals are rapidly formed, the solution is subjected to color change.\nGold nanoparticles (Cit-AuNP) stabilized with citric acid were synthesized to prepare mercaptopropionic acid (MPA)-AuNP. 20 mL of a storage solution containing 1 mM HAuCl4·3H2O was added to 50 mL of deionized water (DI water). After the solution was stirred and heated to a boiling point, 30 mM sodium citric acid in 2 mL of deionized water was further added to the solution and heated for 20 minutes. The color of the solution changed from bright yellow to burgundy. […] An average size of MPA-capped AuNP was measured to be about 16.7 nm.\nOn a microwell plate, 50 μL of a solution containing 0.5 mM sample was added to 350 μL of 300 μM MPA-AuNP solution, respectively. […] To quantitatively confirm the color change before and after freezing, absorption spectra of each mixture were measured with a UH5300 spectrometer before and after freezing. The spectra were measured from 300 nm to 900 nm at a scan speed of 400 nm/min, and aggregation properties (E525/E650) of each mixture were compared. […]"}, "[3]": {"assay": "Ice recrystallization inhibition (IRI) splat assay, MLGS from DFOM images", "conditions": "for IRI effect: ice recrystallized 30 minutes at -6 °C", "procedure": "In order to more clearly confirm the effect of inhibiting ice crystal growth, ice recrystallization inhibition (IRI) characteristics were analyzed. Analysis of ice recrystallization was performed by reference Mitchell, D. E., Clarkson, G., Fox, D. J., Vipond, R. A., Scott, P., & Gibson, M. I. (2017). Antifreeze Protein Mimetic Metallohelices with Potent Ice Recrystallization Inhibition Activity. Journal of the American Chemical Society, 139(29), 9835-9838 and Budke, C., Heggemann, C., Koch, M., Sewald, N., & Koop, T. (2009). Ice Recrystallization Kinetics in the Presence of Synthetic Antifreeze Glycoprotein Analogues Using the Framework of LSW Theory. The Journal of Physical Chemistry B, 113(9), 2865-2873. More specifically, a 10 μL sample was dropped from a height of 1.5 m onto a surface of a cover glass precooled to −60° C. so as to form a thin film of ice. […] During recrystallization of ice, dark-field optical microscopy (DFOM) images were taken, and ten of the largest ice crystal domains were chosen and a mean value thereof was obtained to evaluate the IRI activity. A mean largest grain size (MLGS) analysis was repeated three times."}, "sperms": {"system": "sperms", "assay": "Sperm cryopreservation followed by in vitro fertilization and embryo culture", "type": "cell-based, C57BL/6J mice", "conditions": "sperms frozen in 3% skim milk containing 10 to 20 μM", "procedure": "To cryopreserve sperms, a modified 18% raffinose pentahydrate/3% skim milk (Difco, Becton Dickinson) solution containing 100 mM L-glutamine or skim milk, to which a cryoprotectant according to the present invention was added, was prepared. A human tubal fluid (HTF) medium was used during the IVF process, and a potassium simplex optimized medium (PSOM) was used while 2-cell embryo was cultured to a blastocyst stage.\nA sperm cryopreservation solution dispensed in 60 μL was placed in a 35 mm culture dish and covered with paraffin oil. After male mice were sacrificed with […], a tail of epididymis was removed and divided into pieces, and all fats and blood were removed while observing under a microscope before transferring to the cryopreservation solution. The culture dish was kept at 37° C. for 3 minutes and gently stirred every minute to allow sperms to disperse from the tissues. […]\nFrozen sperms were thawed under various conditions, then added to IVF drops containing eggs and incubated at 37° C. […] After 24 hours from fertilization, a fertilization rate was calculated using the total number of 2-cell embryos as a percentage based on the total number of eggs.\nAfter performing IFV, 2-cell embryos were classified into a group to be cultured in the blastocyst stage and a group to be implanted in the oviduct of ICR females. After giving birth, the number of pups was recorded. […]"}, "[4]": {"assay": "Freezing control on food (beef frozen at -20 °C, thawed; SEM, optical microscope, TEM)", "procedure": "In order to determine whether Fmoc-FFT can be used as a cryoprotectant for foods, Fmoc-FFT was added to beef (FIG. 22a), then frozen at −20° C. for one day, thawed at room temperature, and then SEM images were observed (FIGS. 22b and d).\nAfter freezing and thawing, Fmoc-FFT was added to water in order to confirm the beef tissue, frozen at −20° C., then the process of recrystallization of ice was observed under an optical microscope.\nFurther, in order to confirm the tissue change in more detail, the thawed tissue was rapidly frozen in liquid nitrogen, then cut while maintaining −20° C., and the internal tissue was checked. […] It was observed that, when the Fmoc-FFT was not added, the size of tissue pore was 22±8.6 μm, while it was 5±2.3 μm when adding the same."}, "[5]": {"system": "mouse embryonic stem cells (mESCs)", "assay": "Cryopreservation activity for mESC (freeze/thaw survival, differentiation)", "type": "cell-based", "conditions": "sample solution 10% (v/v), FBS 40%, media 50%; -80 °C then liquid nitrogen", "procedure": "250 μL of trypsinized mouse ES cells, 200 μL of FBS and 50 μL of cryopreservation solution (0.005 μM, 0.01 μM, 0.05 μM, and 0.1 μM) were frozen in a rapid freezer for 2 days, and then stored in an LN2 tank. Thawing was performed in a 37° C. constant temperature water bath. The cell frozen stock mixture was inoculated in 4.5 mL medium of 15 mL tube, and then centrifuged at 1000 rpm for 5 minutes. Cell pellets were added with 1 mL medium and inoculated in a 6-well plate.\nA cell storage solution was prepared with a sample solution 10% (v/v), FBS 40% (v/v), and media 50% (v/v) according to the present invention, and frozen at −80° C. using a rapid freezer, then the cells were stored for 2 days, and further stored in a liquid nitrogen tank for 2 days or more. Then, the cells were thawed and used in the experiment. In addition, the cells were cultured by treatment with a leukemia inhibitory factor (LIF) to confirm the differentiation ability of stem cells. All the controls were cultured and differentiated under the same conditions, except that deionized water was added instead of the sample according to the present invention."}, "[6]": {"assay": "Critical micellar concentration from emission intensity versus concentration", "type": "physicochemical"}}, "note": "Entries after “also recorded” stand apart in the source; their conditions may differ. Residues, ends and D or L forms follow the SMILES beside them. *: point of attachment. Fmoc = O=C(OCC1c2ccccc2-c2ccccc21)*", "data": [{"molecule": "C[S+](C)[O-]", "note": "[DMSO, dimethyl sulfoxide, reference compound]", "values": [{"measurement": "toxicity to mESC", "setting": "[1]", "value": "high toxicity"}]}, {"molecule": "Bovine serum albumin [BSA, reference compound]", "values": [{"measurement": "aggregation of MPA-AuNP (color change) after freezing/thawing", "setting": "[2]; MPA-AuNP + 2 μM BSA or PEG", "value": "aggregation did not occur"}]}, {"molecule": "CC(O)C(NC(=O)C(CC1=c2ccccc2=NC1)NC(=O)C(CC1=CN=C2C=CC=CC12)NC(=O)OCC1c2ccccc2-c2ccccc21)C(N)=O", "note": "(stereo not shown) [Fmoc-WWT]", "values": [{"measurement": "cell viability with respect to mESC", "setting": "[1]", "value": "significant cell viability"}, {"measurement": "IRI effect", "setting": "[3]", "value": "had IRI effects"}, {"measurement": "aggregation of gold particles after freezing/thawing (absorption peak shift 525 nm to 650 nm)", "setting": "[2]", "value": "an aggregation phenomenon was exhibited"}, {"measurement": "rate of 2-cell embryo formation", "setting": "sperms", "value": "≥ 77", "unit": "%"}]}, {"molecule": "CC(O)C(NC(=O)C(Cc1ccccc1)NC(=O)C(Cc1ccccc1)NC(=O)OCC1c2ccccc2-c2ccccc21)C(N)=O", "note": "(stereo not drawn) [Fmoc-FFT] (Fmoc-Phe-Phe-Thr-NH2; configuration not given here)", "values": [{"measurement": "toxicity to mESC", "setting": "[1]", "value": "no toxicity"}, {"measurement": "size of tissue pore", "setting": "[4]; thawed beef tissue refrozen in liquid nitrogen, cut at -20 °C", "value": "5±2.3", "unit": "μm"}, {"measurement": "size of recrystallized ice", "setting": "[4]; versus no Fmoc-FFT added, -20 °C", "value": "significantly smaller; also recorded: remarkably smaller"}, {"measurement": "relative IRI activity", "setting": "[3]; comparison between materials, MLGS", "value": "highest IRI activity"}, {"measurement": "IRI effect", "setting": "[3]", "value": "had the IRI effect"}, {"measurement": "survival and proliferation of mESC after freezing and thawing", "setting": "[5]", "value": "survival and proliferation of mESC was smoothly performed"}]}, {"molecule": "CC(NC(=O)C(Cc1ccccc1)NC(=O)C(Cc1ccccc1)NC(=O)OCC1c2ccccc2-c2ccccc21)C(N)=O", "note": "(stereo not drawn) [Fmoc-FFA] (Fmoc-Phe-Phe-Ala-NH2; configuration not given here)", "values": [{"measurement": "toxicity to mESC", "setting": "[1]", "value": "no toxicity"}, {"measurement": "IRI effect", "setting": "[3]", "value": "had the IRI effect"}, {"measurement": "survival and proliferation of mESC after freezing and thawing", "setting": "[5]", "value": "survival and proliferation of mESC was smoothly performed"}]}, {"molecule": "CC(O)C(NC(=O)C(Cc1ccccc1)NC(=O)C(Cc1ccccc1)NC(=O)Cc1ccc2ccccc2c1)C(N)=O", "note": "(stereo not shown) [Naph-FFT]", "values": [{"measurement": "cell viability with respect to mESC", "setting": "[1]", "value": "significant cell viability"}, {"measurement": "IRI effect", "setting": "[3]", "value": "had IRI effects"}]}, {"molecule": "CC(C)C(NC(=O)C(Cc1ccccc1)NC(=O)C(Cc1ccccc1)NC(=O)OCC1c2ccccc2-c2ccccc21)C(N)=O", "note": "(stereo not drawn) [Fmoc-FFV] (Fmoc-Phe-Phe-Val-NH2; configuration not given here)", "values": [{"measurement": "cell viability with respect to mESC", "setting": "[1]", "value": "significant cell viability"}, {"measurement": "IRI effect", "setting": "[3]", "value": "had the IRI effect"}]}, {"molecule": "NC(=O)C(Cc1ccccc1)NC(=O)C(Cc1ccccc1)NC(=O)OCC1c2ccccc2-c2ccccc21", "note": "(stereo not drawn) [Fmoc-FF] (Fmoc-Phe-Phe-NH2; configuration not given here)", "values": [{"measurement": "toxicity to mESC", "setting": "[1]", "value": "no toxicity"}, {"measurement": "critical micellar concentration (CMC)", "setting": "[6]; aqueous solution", "value": 17, "unit": "µM"}, {"measurement": "survival and proliferation of mESC after freezing and thawing", "setting": "[5]", "value": "survival and proliferation of mESC was smoothly performed"}]}, {"molecule": "NC(=O)C(CO)NC(=O)C(Cc1ccccc1)NC(=O)C(Cc1ccccc1)NC(=O)OCC1c2ccccc2-c2ccccc21", "note": "(stereo not drawn) [Fmoc-FFS] (Fmoc-Phe-Phe-Ser-NH2; configuration not given here)", "values": [{"measurement": "cell viability with respect to mESC", "setting": "[1]", "value": "significant cell viability"}, {"measurement": "IRI effect", "setting": "[3]", "value": "had the IRI effect"}]}, {"molecule": "CC(O)C(NC(=O)C(CCC(=O)O)NC(=O)C(Cc1ccccc1)NC(=O)C(CCC(=O)O)NC(=O)C(Cc1ccccc1)NC(=O)OCC1c2ccccc2-c2ccccc21)C(N)=O", "note": "(stereo not shown) [Fmoc-FEFET] (Fmoc-FEFET-NH2; configuration not given here)", "values": [{"measurement": "toxicity to mESC", "setting": "[1]", "value": "no toxicity"}, {"measurement": "CMC", "setting": "[6]; aqueous solution, compared to Fmoc-FFT", "value": 22.8, "unit": "µM"}, {"measurement": "solubility", "setting": "[6]; compared to Fmoc-FFT", "value": "improved"}, {"measurement": "survival and proliferation of mESC after freezing and thawing", "setting": "[5]", "value": "survival and proliferation of mESC was smoothly performed"}]}, {"molecule": "CC(O)C(NC(=O)C(Cc1ccccc1)NC(=O)C(CC1=CN=C2C=CC=CC12)NC(=O)OCC1c2ccccc2-c2ccccc21)C(N)=O", "note": "(stereo not shown) [Fmoc-WFT]", "values": [{"measurement": "cell viability with respect to mESC", "setting": "[1]", "value": "significant cell viability"}, {"measurement": "IRI effect", "setting": "[3]", "value": "had IRI effects"}, {"measurement": "aggregation of gold particles after freezing/thawing (absorption peak shift 525 nm to 650 nm)", "setting": "[2]", "value": "an aggregation phenomenon was exhibited"}]}]}
